What was measured:
p38α = p38α (Homo sapiens, UniProt Q16539); conditions: cited from earlier work
HRGECs / neutrophils [1] = assay: Neutrophil adhesion to SLE serum-treated HRGECs, by dose of the patients' medication; format: cell-based, human; conditions: serum of SLE patients on differing doses
Protocol: HRGECs were cultured in 48 well fibronectin-coated plates at 80 000 cells per well in complete growth media until confluent. HRGECs were washed, serum starved for 1 hour in ECM supplemented with 0.5% FBS, washed again. Treatments consisting of ECM only, 2.5% serum (lupus or control) in ECM or 100 ng/mL TNF-alpha (Thermo Fisher Scientific) (positive control) in ECM were added to the HRGECs, and cells underwent incubation for 3 hours at 37° C. HRGECs were then washed three times with RPMI-1640 (without phenol red); 6×10^5 Calcein AM-labelled neutrophils were added to each well of the treated HRGECs. Cells were incubated for 20 min at 37° C. and washed five times with PBS (without Ca^2+/Mg^2+). Fluorescence intensity was quantified before the first wash and after the fifth wash to determine percent cell adherence, with all values then normalized to untreated controls. Fluorescence intensity was measured from the top of the plate at 485 nm excitation, 520 nm emission using a fluorescence microplate reader (Biotek HT Synergy).

HRGECs / neutrophils [2] = assay: Neutrophil migration to conditioned media of SLE serum-treated HRGECs, by dose of the patients' medication; format: cell-based, human; conditions: serum of SLE patients on differing doses
Protocol: HRGECs were plated at 4×10^4 cells per well of a 48-well fibronectin-coated plate in complete growth media at 37° C. with 5% CO2. On confluence, cells were washed three times in ECM. Cells were then cultured with 10% serum (SLE or control) in ECM for 3 hours and then washed three times in ECM. Cells were serum starved overnight in ECM. The resulting conditioned media (CM) was then collected and passed through a 0.2 μm pore membrane to remove any cellular debris and frozen at −80° C. for later use.
Transwell membrane chambers with 3 μm pores from a 96-well Migration Plate (Corning, Corning, N.Y., USA) were equilibrated in RPMI for 1 hour at 37° C. Then RPMI was removed. CM or negative (CM from serum-free treatment)/positive (10^−7 M interleukin (IL)-8 (R&D Systems, Minneapolis, Minn., USA)) controls were added to the 96-well black-walled receiver wells (Corning); 1.5×10^5 neutrophils in ECM were then added to the upper chamber of each insert and incubated for 1 hour to allow for neutrophil migration toward the conditioned medium. Cells that migrated through the membrane into the CM were then labelled with Calcein AM and incubated for 1 hour at 37° C. as described above. Fluorescence intensity was then measured from the bottom of the plate at 485 nm excitation, 520 nm emission using a fluorescence microplate reader (Biotek HT Synergy). A standard curve of Calcein AM-labelled neutrophils (using 1.5×10^5, 1.0×10^5, 5.0×10^4, 2.5×10^4, 1.25×10^4, 0.625×10^4 and 0 neutrophils) was created and fluorescence intensity was quantified on the microplate reader. The linear equation was then calculated and fluorescence intensity of samples could then be input into the linear equation to determine neutrophil cell number. The fluorescence intensity of migrated neutrophils in the lower chamber was measured as described (Jones Buie et al., Lupus Sci Med 2019; 6:e000294). All values were normalized to untreated controls.

p38α and p38β2 = conditions: cited from earlier work
iNOS = iNOS (Mus musculus, UniProt P29477); conditions: cited from earlier work
HUVECs / neutrophils = assay: Neutrophil adhesion assay on HUVECs; format: cell-based, human
Protocol: HUVECs were plated at 5.0×10^4 cells/mL in a 24-well plate (Costar) and allowed to adhere overnight. HUVECs were serum starved for 3 hours in phenol-red free 0.2% FBS EBM media (Lonza) prior to activation with 10% sera for 4 hours. Tumor necrosis factor-α (100 ng/mL) was used as the positive control. Neutrophils isolated from healthy human blood as outlined previously were labelled with Calcein AM (Life Technologies) at 5×10^5 cells/mL. Neutrophils were washed gently four times in warm serum-free EBM culture media prior to co-culturing with HUVECs for 60 min after which non-adherent cells were removed by repeated gentle washing (four times) with EBM culture media. Fluorescence intensity was measured at 520 nM with a FLUOStar Omega microplate reader (Cary, N.C., USA), and images were captured using confocal microscopy. Data are reported as ratios of the number of neutrophils to the number of endothelial cells as averages from three different visual fields.

[3] = tested on: C57B6/J mice with angiotensin II minipump; assay: Tail cuff blood pressure response to acetylcholine, angiotensin II model of hypertension; format: in vivo; conditions: 10 mg/kg/d by gavage vs vehicle
Protocol: To determine the effect of sepiapterin in a mouse model of hypertension, C57B6/J mice were implanted with an angiotensin II minipump for 2 weeks to induce hypertension. The animals were then treated with either sepiapterin 10 mg/kg/d by gavage or vehicle. A tail cuff measure of blood pressure was taken followed by injection of acetylcholine and a second tail cuff measure of blood pressure.

[4] = tested on: humans with phenylketonuria and tetrahydrobiopterin deficiencies; conditions: humans with phenylketonuria and tetrahydrobiopterin deficiencies (Smith 2019); cited from earlier work
intracellular BH4 = conditions: compared with exogenous BH4 (Crabtree 2011); cited from earlier work
[5] = tested on: human umbilical vein endothelial cells (HUVECs); assay: Measurement of nitric oxide production (DAF-FM fluorescence, flow cytometry) in serum-cultured HUVECs; format: cell-based; conditions: for DAF-FM MFI, a marker of NO production: L-sep 5 μM 6 hours
Protocol: Primary human umbilical vein endothelial cells from pooled donors were purchased from Lonza (Walkersville, Md., USA) and cultured according to the manufacturer's instructions in 5% CO2 at 37° C. in humidified air. Cells were cultured in endothelial cell basal medium-2 (EBM-2) supplemented with EBM-2 SingleQuot (Lonza), pH 7.6-8.0. Media was changed every other day until cells were 70%-80% confluent. HUVECs were sub-cultured using TryPLE Express, pH 8.0 (ThermoFisher Scientific, Waltham, Mass., USA). Cell growth was limited to 12 population doublings, and all experiments were carried out using cells between passages 3-5. For serum experiments, cells were cultured with 20%-50% serum for 6 or 24 hours prior to further analysis.
For real-time detection of NO production in HUVECs, 1.2×10^5 cells were seeded in a 12-well tissue culture plate. Following adherence, cells were serum starved for 6 hours in endothelial basal media (EBM) containing 0.2% fetal bovine serum (FBS). Cells were stimulated with either 50% healthy or SLE sera±L-sep (5 μM; 6 hours), the eNOS-specific inhibitor, Nω-Nitro-L-arginine (L-NNA, 10 μM; 30 min pre-incubation (Tocris; Bristol, UK)) or the NO donor 3,3′-diamino-4′-methoxyflavone (DD1, 10 μM, Tocris). Following stimulation, cells were washed twice with phosphate buffered saline (PBS) and loaded with 1 μM DAF-FM diacetate (4-amino-5-methylamino-2′,7′-difluorofluorescein diacetate, 1 μM) (ThermoFisher Scientific) in phenol red-free EBM for 30-45 min. […] A population of 2000-10 000 cells were gated to remove doublets and controls and analyzed based on their fluorescence intensities using a FACS Calibur flow cytometer (Becton Dickenson, San Diego, USA). The mean fluorescence intensity (MFI) was normalized to respective populations in unstimulated cells. In order to discriminate between NO and other gaseous molecules previously shown to augment DAF-FM fluorescence, a urate assay was performed to optimize the assay (data not shown).

[6] = tested on: human renal glomerular endothelial cells (HRGEC); assay: NO production (DAF-FM with urate) by HRGEC treated with LN serum; format: cell-based; conditions: urate added, 5 μM L-Sepiapterin, 25 μM VAS2870
Protocol: The inflammatory phenotype of HUVECs differs from microvascular endothelial cells and may not reflect mechanisms in glomerular endothelial cells. To confirm the uncoupling effects lead to functional changes in uncoupling and NO production by EC treated with LN serum in HRGEC, HRGEC as in FIG. 10 was treated with LN serum in a black walled 96-well plate. […] NO production was quantified using DAF-FM fluorescence with urate added to prevent ONOO— fluorescence. […] While not wishing to be bound to any particular theory, one possible explanation for this finding is that uncoupled NOS is a significant source of ROS in LN (Njoku, C. J. et al., 2005, J. Investig. Med., 53:347-52).
HRGECs are plated at 3×10^4 cells per well in a 96-well black-walled plate and cultured in complete growth media at 37° C. in a humidified atmosphere with 5% CO2. Upon confluence, complete growth medium is removed, and cells washed in ECM-prf (phenol red free). Cells are incubated with 2 μM DAF-FM Diacetate for 60 minutes at 37° C., then cells washed in ECM-prf. […] 0.6 mM DPTA NONOate (Abcam) is a positive control, while L-NAME (100 μM) is a negative control. […] Plates are incubated for 30 minutes at 37° C. and read at 485/528 excitation/emission on a microplate reader (BioTek HT Synergy). […]

[7] = tested on: BALB/c mice with Angiotensin II minipumps; assay: Systolic blood pressure in Angiotensin II minipump hypertension; format: in vivo
Protocol: Hypertension was created in some BALB/c mice with Angiotensin II minipumps. Mice were treated half with CSNA-001 (L-sep) 8 days after the pumps were placed and baseline SBP checked. The decrease in systolic BP was significant in the treated mice but not the untreated (FIG. 21 and FIG. 22).

TLR 7/9 = conditions: cited from earlier work

p38α, sequence (Q16539 whole entry): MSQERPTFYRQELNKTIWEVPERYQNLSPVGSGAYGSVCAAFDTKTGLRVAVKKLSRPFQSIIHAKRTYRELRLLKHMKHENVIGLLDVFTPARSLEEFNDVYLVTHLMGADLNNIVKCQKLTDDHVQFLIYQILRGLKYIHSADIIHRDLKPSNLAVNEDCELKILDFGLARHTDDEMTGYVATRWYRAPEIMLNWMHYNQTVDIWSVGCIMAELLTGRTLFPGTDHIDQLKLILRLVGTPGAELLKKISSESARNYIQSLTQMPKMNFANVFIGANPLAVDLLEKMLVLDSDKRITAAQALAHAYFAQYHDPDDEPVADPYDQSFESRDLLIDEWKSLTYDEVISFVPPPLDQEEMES
iNOS, sequence (P29477 whole entry): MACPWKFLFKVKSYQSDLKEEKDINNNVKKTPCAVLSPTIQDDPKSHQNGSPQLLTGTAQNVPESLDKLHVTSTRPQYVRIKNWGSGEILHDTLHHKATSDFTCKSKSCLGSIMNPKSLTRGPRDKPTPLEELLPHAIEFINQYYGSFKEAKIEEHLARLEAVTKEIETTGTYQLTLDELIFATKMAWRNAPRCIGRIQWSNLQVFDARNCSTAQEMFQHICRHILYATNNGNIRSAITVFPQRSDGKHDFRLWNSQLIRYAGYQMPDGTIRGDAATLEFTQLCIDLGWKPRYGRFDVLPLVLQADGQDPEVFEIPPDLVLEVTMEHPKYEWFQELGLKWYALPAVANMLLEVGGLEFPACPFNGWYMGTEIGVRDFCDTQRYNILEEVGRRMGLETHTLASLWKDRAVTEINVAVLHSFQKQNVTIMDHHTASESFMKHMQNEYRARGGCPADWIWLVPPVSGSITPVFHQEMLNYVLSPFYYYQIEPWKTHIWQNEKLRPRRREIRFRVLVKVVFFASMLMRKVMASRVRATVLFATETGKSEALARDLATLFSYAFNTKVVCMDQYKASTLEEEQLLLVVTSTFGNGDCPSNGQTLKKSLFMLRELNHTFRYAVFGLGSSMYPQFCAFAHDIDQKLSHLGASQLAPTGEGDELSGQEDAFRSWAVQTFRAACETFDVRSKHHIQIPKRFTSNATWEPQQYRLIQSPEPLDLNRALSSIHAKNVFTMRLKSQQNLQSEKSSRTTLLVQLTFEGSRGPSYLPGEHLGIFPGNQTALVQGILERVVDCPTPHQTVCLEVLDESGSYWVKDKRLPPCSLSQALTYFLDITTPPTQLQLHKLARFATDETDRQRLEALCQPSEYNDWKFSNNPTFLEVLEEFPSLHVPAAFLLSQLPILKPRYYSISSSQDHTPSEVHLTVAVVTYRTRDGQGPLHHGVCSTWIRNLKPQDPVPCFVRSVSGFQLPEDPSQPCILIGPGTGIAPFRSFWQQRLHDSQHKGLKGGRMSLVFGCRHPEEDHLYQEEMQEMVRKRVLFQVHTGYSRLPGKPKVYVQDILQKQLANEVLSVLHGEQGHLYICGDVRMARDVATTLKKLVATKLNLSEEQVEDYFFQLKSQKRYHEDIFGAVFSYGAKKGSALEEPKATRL

## Cc1c(F)cc(C(=O)NC2CC2)cc1-c1c(F)cn2c(C(C)(C)C)nnc2c1F [AL 8697]
p38α
  IC50: 6 nM

## COc1c(C)c2c(c(O)c1C/C=C(\C)CCC(=O)OCCN1CCOCC1)C(=O)OC2 [CellCept, mycophenolate mofetil]
HRGECs / neutrophils [1]
  neutrophil adhesion, dosing effects of medication: No difference
HRGECs / neutrophils [2]
  neutrophil migration, dosing effects of medication: No difference

## Cc1ccccc1C(=O)c1ccc(Nc2ccc(Br)cc2N)cc1Cl [EO1428]
p38α and p38β2
  IC50: 74 nM

## CC(=N)NCCCC[C@H](N)C(=O)O [L-NIL]
iNOS
  IC50: 3300 nM

## CC(O)C(=O)C1=Nc2c([nH]c(N)nc2=O)NC1 [L-sepiapterin, 2-amino-6-[-2-hydroxypropanoyl]-7,8-dihydro-1H-pteridin-4-one]
HUVECs / neutrophils; SLE serum cultured HUVECs
  neutrophil adhesion induced by SLE serum: did not reverse neutrophil adhesion
HUVECs / neutrophils; cells cultured in EBM-2 media, p<0.05
  neutrophil adhesion: reversed neutrophil adhesion
[3]
  endothelial function (difference in tail cuff pressure after acetylcholine): improves endothelial function
[4]
  safety profile: favorable
Intracellular BH4
  intracellular BH4 levels: more effectively than exogenous BH4
[5]; SLE serum cultured HUVECs, 50% serum, vs SLE cultured cells without L-sepiapterin, p<0.01
  DAF-FM MFI, a marker of NO production: significantly increased
[5]; control serum cultured HUVECs
  DAF-FM MFI, a marker of NO production: not observed
[5]; vs ratios in control and healthy serum culture conditions, p<0.001 and <0.01
  ratio in MFI-fold change between SLE serum+L-sepiapterin and SLE serum: significantly different
[6]
  NO production (DAF-FM fluorescence): increased more
[7]; treated mice, 20 mg/kg daily, Day 7 to Day 14, cuff pressure
  decrease in systolic BP: significant
[7]; treated vs untreated mice
  mean blood pressure responses to acetyl choline: significant differences
[7]; treated vs untreated mice, 20 mg/kg daily
  differences in reduction of systolic blood pressure: about 8 mmHg

## NCCCC[C@H](N[C@@H](CCc1ccccc1)C(=O)O)C(=O)N1CCC[C@H]1C(=O)O [Lisinopril]
HRGECs / neutrophils [1]
  neutrophil adhesion, dosing effects of medication: No difference
HRGECs / neutrophils [2]
  neutrophil migration, dosing effects of medication: No difference

## C[C@]12C=CC(=O)C=C1CC[C@@H]1[C@@H]2C(=O)C[C@@]2(C)[C@H]1CC[C@]2(O)C(=O)CO [Prednisone, prednisone]
HRGECs / neutrophils [1]
  neutrophil adhesion, dosing effects of medication: No difference
HRGECs / neutrophils [2]
  neutrophil migration, dosing effects of medication: No difference

## c1ccc(Cn2nnc3c(Sc4nc5ccccc5o4)ncnc32)cc1 [VAS2870, reference compound]
[6]
  NO production (DAF-FM fluorescence): not effective

## CCN(CCO)CCCC(C)Nc1ccnc2cc(Cl)ccc12 (stereo not shown) [hydroxychloroquine]
HRGECs / neutrophils [1]
  neutrophil adhesion, dosing effects of medication: No difference
TLR 7/9
  IC50: ~4000 nM
HRGECs / neutrophils [2]
  neutrophil migration, dosing effects of medication: No difference
